The source made the active and inactive calls. The calls are words filed in the database; no cut-off is given here.
Tests used:
[1] = test system: Mus musculus; assay: Antinociceptive activity against Swiss Webster mouse model assessed as increase in tail withdrawal latency from warm water at 10 mg/kg, sc incubated for 5 mins followed by morphine addition and measured after 20 mins by warm water tail immersion assay; assay type: functional, organism-based
[2] = test system: Mus musculus; assay: Antinociceptive activity against Swiss Webster mouse model assessed as increase in tail withdrawal latency from warm water by measuring maximum possible effect at 10 mg/kg, sc measured after 20 min by warm water tail immersion assay; assay type: functional, organism-based
[3] = molecular target: T1, Delta-type opioid receptor (Homo sapiens, UniProt P41143); assay: biochemical
T1 sequence (P41143 whole entry): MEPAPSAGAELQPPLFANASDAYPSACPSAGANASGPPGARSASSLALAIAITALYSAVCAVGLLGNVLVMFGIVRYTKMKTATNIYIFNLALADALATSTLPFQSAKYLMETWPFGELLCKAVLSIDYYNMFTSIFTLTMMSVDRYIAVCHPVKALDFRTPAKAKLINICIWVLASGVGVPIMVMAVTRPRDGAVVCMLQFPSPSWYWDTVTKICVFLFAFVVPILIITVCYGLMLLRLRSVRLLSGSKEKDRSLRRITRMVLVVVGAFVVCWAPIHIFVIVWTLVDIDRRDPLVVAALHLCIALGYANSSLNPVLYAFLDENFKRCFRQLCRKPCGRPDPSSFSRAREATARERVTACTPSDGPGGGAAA
Description: Antagonist activity against human delta opioid receptor expressed in CHO cell membrane assessed as reduction in SNC80 induced [35S]GTPgammaS binding incubated for 1.5 hrs by liquid scintillation counting method

[4] = molecular target: T2, Kappa-type opioid receptor (Mus musculus, UniProt P33534); assay: biochemical
T2 sequence (P33534 whole entry): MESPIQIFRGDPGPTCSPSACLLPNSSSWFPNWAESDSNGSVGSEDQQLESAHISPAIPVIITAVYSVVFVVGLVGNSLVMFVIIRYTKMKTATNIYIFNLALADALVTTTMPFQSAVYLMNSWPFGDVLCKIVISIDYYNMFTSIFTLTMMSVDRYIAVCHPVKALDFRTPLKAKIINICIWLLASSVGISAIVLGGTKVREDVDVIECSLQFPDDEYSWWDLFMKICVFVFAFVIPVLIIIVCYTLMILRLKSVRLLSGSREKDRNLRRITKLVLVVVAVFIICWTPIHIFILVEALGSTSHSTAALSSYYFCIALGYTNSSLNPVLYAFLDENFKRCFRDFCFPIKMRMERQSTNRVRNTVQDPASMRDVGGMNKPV
Description: Antagonist activity at mouse kappa opioid receptor expressed in CHO cell membranes assessed as reduction in U50,488H induced [35S]GTPgammaS binding incubated for 1.5 hrs by liquid scintillation counting method

[5] = molecular target: T3, Mu-type opioid receptor (Mus musculus, UniProt P42866)
T3 sequence (P42866 whole entry): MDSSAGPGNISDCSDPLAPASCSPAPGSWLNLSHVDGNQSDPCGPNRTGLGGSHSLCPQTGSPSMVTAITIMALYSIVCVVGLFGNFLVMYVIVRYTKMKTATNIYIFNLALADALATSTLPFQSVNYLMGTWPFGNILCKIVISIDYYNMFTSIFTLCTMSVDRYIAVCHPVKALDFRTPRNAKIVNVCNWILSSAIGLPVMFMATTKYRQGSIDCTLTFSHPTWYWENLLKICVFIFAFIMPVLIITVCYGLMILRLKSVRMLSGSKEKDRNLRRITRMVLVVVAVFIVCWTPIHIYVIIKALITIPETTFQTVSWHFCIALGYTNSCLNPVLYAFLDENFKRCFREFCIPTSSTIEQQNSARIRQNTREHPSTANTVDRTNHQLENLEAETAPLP

[6] = molecular target: T3, Mu-type opioid receptor; assay: Partial agonist activity at mouse mu opioid receptor expressed in CHO cell membranes incubated for 1.5 hrs by [35S]GTPgammaS binding based liquid scintillation counting method
[7] = molecular target: T2, Kappa-type opioid receptor
Description: Displacement of [3H]-diprenorphine from mouse kappa opioid receptor expressed in CHO cell membranes assessed as inhibition constant incubated for 1.5 hrs by competitive binding assay

[8] = molecular target: T1, Delta-type opioid receptor
Description: Displacement of [3H]-diprenorphine from human delta opioid receptor expressed in CHO cell membranes assessed as inhibition constant incubated for 1.5 hrs by competitive binding assay

[9] = test system: Mus musculus; assay: Anti-addiction activity in morphine pelleted Swiss Webster mouse assessed as escape jumps at 5 mg/kg, sc measured after 72 hrs; assay type: functional, organism-based
[10] = test system: Mus musculus; assay: Anti-addiction activity in morphine pelleted Swiss Webster mouse assessed as wet dog shakes at 5 mg/kg, sc measured after 72 hrs; assay type: functional, organism-based
[11] = Solubility of the compound in DMSO; assay type: physicochemical
[12] = test system: Mus musculus; assay: Anti-addiction activity in morphine pelleted Swiss Webster mouse assessed as paw tremors at 5 mg/kg, sc measured after 72 hrs; assay type: functional, organism-based

Row | Compound | Activity [1] | Activity [2] | EC50 [3] [nM] | EC50 [4] [nM] | Ki [5] [nM] | EC50 [6] [nM] | Ki [7] [nM] | Ki [8] [nM] | Activity [9] | Activity [10] | solubility [11] | Activity [12]
1 | O=C(N[C@@H]1CC[C@@]2(O)[C@H]3Cc4ccc(O)c5c4[C@@]2(CCN3CC2CC2)[C@H]1O5)c1cccs1 | Active | inactive |  |  |  |  |  |  |  |  |  | 
2 | O=C(Cc1ccco1)N[C@H]1CC[C@@]2(O)[C@H]3Cc4ccc(O)c5c4[C@@]2(CCN3CC2CC2)[C@H]1O5 | Active | inactive | 6.2 | 85.4 | 0.59 | 2.74 | 6.67 | 4.61 |  |  |  | 
3 | O=C(N[C@H]1CC[C@@]2(O)[C@H]3Cc4ccc(O)c5c4[C@@]2(CCN3CC2CC2)[C@H]1O5)c1ccoc1 |  | Active |  |  | 0.5 | 7.63 | 2.14 | 28.6 |  |  |  | 
4 | O=C(N[C@@H]1CC[C@@]2(O)[C@H]3Cc4ccc(O)c5c4[C@@]2(CCN3CC2CC2)[C@H]1O5)c1ccoc1 |  | Active |  |  | 8.47 | 35 | 29.4 | 1980 |  |  |  | 
5 | O=C(Cc1cc[nH]c1)N[C@@H]1CC[C@@]2(O)[C@H]3Cc4ccc(O)c5c4[C@@]2(CCN3CC2CC2)[C@H]1O5 | inactive | inactive |  |  | 0.28 | 1.18 | 4.19 | 37.8 |  |  |  | 
6 | O=C(Cc1ccco1)N[C@@H]1CC[C@@]2(O)[C@H]3Cc4ccc(O)c5c4[C@@]2(CCN3CC2CC2)[C@H]1O5 | Active | inactive | 42.3 | 13.3 | 0.23 | 0.97 | 3.38 | 45.6 |  |  |  | 
7 | O=C(N[C@H]1CC[C@@]2(O)[C@H]3Cc4ccc(O)c5c4[C@@]2(CCN3CC2CC2)[C@H]1O5)c1ccc[nH]1 | Active | inactive |  |  |  |  |  |  |  |  |  | 
8 | O=C(Cc1ccc[nH]1)N[C@H]1CC[C@@]2(O)[C@H]3Cc4ccc(O)c5c4[C@@]2(CCN3CC2CC2)[C@H]1O5 | inactive | inactive |  |  | 0.46 | 4.18 | 2.88 | 3.85 |  |  |  | 
9 | O=C(N[C@H]1CC[C@@]2(O)[C@H]3Cc4ccc(O)c5c4[C@@]2(CCN3CC2CC2)[C@H]1O5)c1cc[nH]c1 | inactive | inactive |  |  | 1.31 | 2.21 | 2.78 | 40.4 |  |  |  | 
10 | O=C(N[C@H]1CC[C@@]2(O)[C@H]3Cc4ccc(O)c5c4[C@@]2(CCN3CC2CC2)[C@H]1O5)c1ccsc1 | Active | inactive |  |  |  |  |  |  | Active | Active |  | 
11 | O=C(CCc1ccsc1)N[C@H]1CC[C@@]2(O)[C@H]3Cc4ccc(O)c5c4[C@@]2(CCN3CC2CC2)[C@H]1O5 | inactive | inactive |  |  |  |  |  |  |  |  |  | 
12 | O=C(Cc1ccsc1)N[C@@H]1CC[C@@]2(O)[C@H]3Cc4ccc(O)c5c4[C@@]2(CCN3CC2CC2)[C@H]1O5 | inactive | inactive |  |  | 0.2 | 3.24 | 1.31 | 36.1 |  |  |  | 
13 | O=C(CCc1cccs1)N[C@@H]1CC[C@@]2(O)[C@H]3Cc4ccc(O)c5c4[C@@]2(CCN3CC2CC2)[C@H]1O5 |  | Active |  |  |  |  |  |  |  |  |  | 
14 | O=C(CCc1ccc[nH]1)N[C@@H]1CC[C@@]2(O)[C@H]3Cc4ccc(O)c5c4[C@@]2(CCN3CC2CC2)[C@H]1O5 |  | Active |  |  | 0.52 | 1.22 | 1.25 | 36.7 |  |  |  | 
15 | O=C(N[C@@H]1CC[C@@]2(O)[C@H]3Cc4ccc(O)c5c4[C@@]2(CCN3CC2CC2)[C@H]1O5)c1ccco1 | Active | inactive | 35.5 | 6.3 | 0.3 | 0.98 | 1.29 | 84.7 |  |  |  | 
16 | O=C(Cc1ccc[nH]1)N[C@@H]1CC[C@@]2(O)[C@H]3Cc4ccc(O)c5c4[C@@]2(CCN3CC2CC2)[C@H]1O5 |  | Active |  |  | 0.16 | 0.8 | 1.35 | 24.3 |  |  |  | 
17 | O=C(Cc1cccs1)N[C@H]1CC[C@@]2(O)[C@H]3Cc4ccc(O)c5c4[C@@]2(CCN3CC2CC2)[C@H]1O5 | inactive | inactive |  |  |  |  |  |  |  |  |  | 
18 | O=C(CCc1ccc[nH]1)N[C@H]1CC[C@@]2(O)[C@H]3Cc4ccc(O)c5c4[C@@]2(CCN3CC2CC2)[C@H]1O5 | inactive | inactive |  |  | 0.58 | 3.79 | 0.54 | 7.58 |  |  |  | 

Row | Compound | Activity [1] | Activity [2] | EC50 [3] [nM] | EC50 [4] [nM] | Ki [5] [nM] | EC50 [6] [nM] | Ki [7] [nM] | Ki [8] [nM] | Activity [9] | Activity [10] | solubility [11] | Activity [12]
19 | O=C(CCc1ccco1)N[C@@H]1CC[C@@]2(O)[C@H]3Cc4ccc(O)c5c4[C@@]2(CCN3CC2CC2)[C@H]1O5 | inactive | inactive |  |  |  |  |  |  |  |  |  | 
20 | O=C(Cc1cc[nH]c1)N[C@H]1CC[C@@]2(O)[C@H]3Cc4ccc(O)c5c4[C@@]2(CCN3CC2CC2)[C@H]1O5 | inactive | inactive |  |  | 3.62 | 51.4 | 19 | 14.4 |  |  |  | 
21 | O=C(Cc1ccsc1)N[C@H]1CC[C@@]2(O)[C@H]3Cc4ccc(O)c5c4[C@@]2(CCN3CC2CC2)[C@H]1O5 | inactive | inactive |  |  | 0.23 | 1.21 | 0.65 | 39.4 |  |  |  | 
22 | O=C(Cc1ccoc1)N[C@@H]1CC[C@@]2(O)[C@H]3Cc4ccc(O)c5c4[C@@]2(CCN3CC2CC2)[C@H]1O5 | inactive | inactive |  |  | 0.22 | 0.91 | 3.68 | 73 |  |  |  | 
23 | O=C(Cc1ccoc1)N[C@H]1CC[C@@]2(O)[C@H]3Cc4ccc(O)c5c4[C@@]2(CCN3CC2CC2)[C@H]1O5 | inactive | inactive |  |  | 0.42 | 8.32 | 6.45 | 3.74 |  |  |  | 
24 | O=C(CCc1ccco1)N[C@H]1CC[C@@]2(O)[C@H]3Cc4ccc(O)c5c4[C@@]2(CCN3CC2CC2)[C@H]1O5 | inactive | inactive |  |  |  |  |  |  |  |  |  | 
25 | O=C(CCc1ccoc1)N[C@@H]1CC[C@@]2(O)[C@H]3Cc4ccc(O)c5c4[C@@]2(CCN3CC2CC2)[C@H]1O5 | inactive | inactive |  |  |  | 0.63 |  |  |  |  |  | 
26 | O=C(CCc1cc[nH]c1)N[C@@H]1CC[C@@]2(O)[C@H]3Cc4ccc(O)c5c4[C@@]2(CCN3CC2CC2)[C@H]1O5 | inactive | inactive |  |  | 0.41 | 1.6 | 2.72 | 67.5 |  |  |  | 
27 | O=C(CCc1ccsc1)N[C@@H]1CC[C@@]2(O)[C@H]3Cc4ccc(O)c5c4[C@@]2(CCN3CC2CC2)[C@H]1O5 |  | Active |  |  |  |  |  |  |  |  |  | 
28 | O=C(Cc1cccs1)N[C@@H]1CC[C@@]2(O)[C@H]3Cc4ccc(O)c5c4[C@@]2(CCN3CC2CC2)[C@H]1O5 | inactive | inactive |  |  |  |  |  | 64.9 |  |  |  | 
29 | O=C(N[C@@H]1CC[C@@]2(O)[C@H]3Cc4ccc(O)c5c4[C@@]2(CCN3CC2CC2)[C@H]1O5)c1ccsc1 | Active | inactive |  |  |  |  |  |  |  |  |  | 
30 | O=C(CCc1ccoc1)N[C@H]1CC[C@@]2(O)[C@H]3Cc4ccc(O)c5c4[C@@]2(CCN3CC2CC2)[C@H]1O5 | inactive | inactive |  |  |  | 2.31 |  |  |  |  |  | 
31 | O=C(CCc1cccs1)N[C@H]1CC[C@@]2(O)[C@H]3Cc4ccc(O)c5c4[C@@]2(CCN3CC2CC2)[C@H]1O5 | inactive | inactive |  |  | 0.48 | 3.06 | 1.76 | 2.25 |  |  |  | 
32 | O=C(N[C@H]1CC[C@@]2(O)[C@H]3Cc4ccc(O)c5c4[C@@]2(CCN3CC2CC2)[C@H]1O5)c1ccco1 | inactive | inactive |  |  | 0.53 | 9.49 | 1.97 | 33.3 |  |  |  | 
33 | O=C(N[C@@H]1CC[C@@]2(O)[C@H]3Cc4ccc(O)c5c4[C@@]2(CCN3CC2CC2)[C@H]1O5)c1ccc[nH]1 | inactive | inactive |  |  |  |  |  |  |  |  |  | 
34 | O=C(CCc1cc[nH]c1)N[C@H]1CC[C@@]2(O)[C@H]3Cc4ccc(O)c5c4[C@@]2(CCN3CC2CC2)[C@H]1O5 | Active | inactive |  |  | 0.7 | 3.86 | 0.59 | 8.62 |  |  | Insoluble | 
35 | O=C(N[C@H]1CC[C@@]2(O)[C@H]3Cc4ccc(O)c5c4[C@@]2(CCN3CC2CC2)[C@H]1O5)c1cccs1 | Active | inactive |  |  |  |  |  |  | Active | Active |  | Active
36 | O=C(N[C@@H]1CC[C@@]2(O)[C@H]3Cc4ccc(O)c5c4[C@@]2(CCN3CC2CC2)[C@H]1O5)c1cc[nH]c1 |  | Active |  |  | 0.36 | 2.03 | 4.51 | 107 |  |  |  | 

— ChEMBL document CHEMBL5046295 (J Med Chem, 2022)
